Reference: US20260199309A1, “COMPOUNDS FOR THE TREATMENT OF CENTRA NERVOUS SYSTEM DISORDERS” (Autifony Therapeutics Limited, priority 2022, published 2026)

Experiments:
[1] = target: T1, CYP3A4 (Homo sapiens, UniProt P08684); assay: CYP450 inhibition, Vivid Baculosomes (3A4/DBOMF); type: in vitro ADME; conditions: substrate DBOMF, top concentration 5.00E-05, read-out: CYP3A4DBOMF
T1 construct: purchased
Source text: The method uses recombinant human CYP450 to metabolize pro-fluorescent probe substrates to fluorescent products. IC50 values for the effect of test compounds on the metabolism of these probe substrates provides a measure of the potency of inhibition of individual CYP450 isoforms.
The described assays measure in vitro inhibitory effects (pIC50) of compounds at the human P450 isoforms (1A2, 2C8, 2C9, 2C19, 2D6, 3A4) expressed in recombinant microsomes. Pro-fluorescent probe substrates are metabolized to fluorescent products by the enzymes.
Fluorescence is measured in kinetic mode (1 read/min for 10 min) and the fluorescence rate is calculated. Data are normalized to controls: DMSO represents 0% effect (i.e. no inhibition), while 10 μM Miconazole is set to 100% effect (i.e. complete inhibition).
Inhibition of the fluorescent signal determined by P450 […] indicates antagonist activity of the compound and allows for the calculation of the compound plC50.
CRCs of compounds are run on two different test occasions (n=2) by preparing serial dilutions from the same compound stock solution. Details of the solutions are outlined in Table 6:
Test compound serial dilutions 1 to 3 were performed from a 10 mM stock solution in DMSO by Biomek FX to generate 10 point CRC. 100% DMSO was used for assay low controls. 10 mM (2 mM for 3A4/DBOMF, 2C8/DBOMF assay only) miconazole solution in DMSO was used as assay high controls. The final concentrations of the 10 point CRCs of test compounds in the assay plate were 5.00E-05; 1.67E-05; 5.56E-06; 1.85E-06; 6.17E-07; 2.06E-07; 6.86E-08; 2.29E-08; 7.62E-09 and 2.54E-09, respectively.
The CYP3A4 and CYP2C8 were assayed using the Vivid CYP3A4 Baculosomes, CYP2C8 Baculosomes and Vivid DBOMF Substrate. […]
10 μl/well from compound plate was added and incubated for 10 min at 37° C. on a plate shaker. […] The plate was transferred into the fluorescent plate reader (EnVision, Wallac) immediately within 2 min and monitor fluorescence every minute for 10 (Excitation 485, Emission 535 and Mirror 505 FITC). […]
The inhibition effect was expressed as percentage. […]

[2] = target: CYP2D6 (Homo sapiens, UniProt P10635); assay: CYP450 inhibition, pro-fluorescent probe substrate (2D6/MMMC); type: in vitro ADME; conditions: recombinant human CYP450, substrate MMMC; top concentration 5.00E-05
[3] = target: T2, human Kv3.1 channels (hKv3.1) (Homo sapiens, UniProt P48547); assay: Kv3.1 channel modulation, IonWorks Quattro planar array electrophysiology; type: cell-based; conditions: HEK-293 cells expressing human Kv3.1; for EC50: read-out: Kv3.1 pEC50 (converted); for Kv3.1 max R %: normalised to maximum effect of 50 microM reference compound
T2 construct: expressed in transfected cells
T2 sequence (P48547 1-511): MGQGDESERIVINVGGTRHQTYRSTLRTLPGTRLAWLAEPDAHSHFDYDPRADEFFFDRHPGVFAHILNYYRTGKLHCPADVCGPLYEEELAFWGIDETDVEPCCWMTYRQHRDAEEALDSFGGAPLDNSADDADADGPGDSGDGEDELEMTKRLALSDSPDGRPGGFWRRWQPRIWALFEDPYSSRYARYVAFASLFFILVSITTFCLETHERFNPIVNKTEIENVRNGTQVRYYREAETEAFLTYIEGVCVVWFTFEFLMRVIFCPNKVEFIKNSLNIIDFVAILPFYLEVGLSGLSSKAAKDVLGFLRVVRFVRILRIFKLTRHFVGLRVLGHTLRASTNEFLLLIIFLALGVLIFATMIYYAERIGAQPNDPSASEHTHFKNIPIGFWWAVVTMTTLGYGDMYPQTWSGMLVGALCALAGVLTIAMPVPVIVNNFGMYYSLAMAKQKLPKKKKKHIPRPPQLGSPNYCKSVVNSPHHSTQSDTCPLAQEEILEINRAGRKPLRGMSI

[4] = currents at −15 mV voltage step, normalised to 50 microM reference compound and vehicle

T1 sequence (P08684 whole entry): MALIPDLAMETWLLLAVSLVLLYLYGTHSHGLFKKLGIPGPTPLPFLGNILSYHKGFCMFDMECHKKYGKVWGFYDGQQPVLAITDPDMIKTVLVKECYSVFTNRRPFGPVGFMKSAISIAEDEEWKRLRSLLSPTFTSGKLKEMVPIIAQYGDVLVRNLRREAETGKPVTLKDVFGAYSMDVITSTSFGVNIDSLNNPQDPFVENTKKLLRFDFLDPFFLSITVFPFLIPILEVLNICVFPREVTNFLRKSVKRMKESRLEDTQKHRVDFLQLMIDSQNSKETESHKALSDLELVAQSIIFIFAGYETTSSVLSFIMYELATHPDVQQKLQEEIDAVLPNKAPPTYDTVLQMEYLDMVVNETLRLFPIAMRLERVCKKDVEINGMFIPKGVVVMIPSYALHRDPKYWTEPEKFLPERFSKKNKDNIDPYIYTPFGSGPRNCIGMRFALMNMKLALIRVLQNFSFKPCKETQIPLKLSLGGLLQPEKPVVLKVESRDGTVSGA
CYP2D6, sequence (P10635 whole entry): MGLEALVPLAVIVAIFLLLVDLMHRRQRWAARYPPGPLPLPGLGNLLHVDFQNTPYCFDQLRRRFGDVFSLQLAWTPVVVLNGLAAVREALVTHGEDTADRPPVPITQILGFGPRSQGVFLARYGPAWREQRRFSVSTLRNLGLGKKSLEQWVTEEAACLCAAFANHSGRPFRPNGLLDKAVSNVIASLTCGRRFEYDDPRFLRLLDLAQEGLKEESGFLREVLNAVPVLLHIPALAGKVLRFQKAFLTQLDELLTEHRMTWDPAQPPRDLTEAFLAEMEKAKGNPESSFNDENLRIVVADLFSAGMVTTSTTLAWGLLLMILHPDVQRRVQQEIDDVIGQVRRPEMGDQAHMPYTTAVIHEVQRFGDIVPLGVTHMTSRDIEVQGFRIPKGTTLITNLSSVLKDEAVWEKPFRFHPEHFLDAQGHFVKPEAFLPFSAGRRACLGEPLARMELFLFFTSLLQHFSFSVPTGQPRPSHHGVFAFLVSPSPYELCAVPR

| Structure (SMILES) | IC50 [1] | IC50 [2] | EC50 [3, 4] | Kv3.1 max R % [3] | Kv3.1 pEC50 [3, 4] |
| --- | --- | --- | --- | --- | --- |
| CC1(C)NC(=O)N(c2ccc(Oc3cccc(OC(F)(F)F)c3)nc2N)C1=O [Example 9, 3-[2-amino-6-[3-(trifluoromethoxy)phenoxy]-3-pyridyl]-5,5-dimethyl-imidazolidine-2,4-dione] | > 50 µM | > 50 µM | 2.51 µM | 118% |  |
| Cc1ccc(Oc2ccc(N3C(=O)NC(C)(C)C3=O)c(N)n2)c2c1OCC21CC1 [Example 1, 3-[2-amino-6-(7-methylspiro[2H-benzofuran-3,1′-cyclopropane]-4-yl)oxy-3-pyridyl]-5,5-dimethyl-imidazolidine-2,4-dione] | > 50 µM | > 50 µM | 0.251 µM | 183% | 6.6 |
| COc1nc(Oc2ccc(C)c3c2C2(CC2)CO3)ccc1N1C(=O)NC(C)(C)C1=O [Reference Example 2, reference compound] | 10.2 µM | > 50 µM | 1 µM |  |  |
